In ChEMBL document CHEMBL1130320, “Hypoxia-selective antitumor agents. 15. Modification of rate of nitroreduction and extent of lysosomal uptake by polysubstitution of 4-(alkylamino)-5-nitroquinoline bioreductive drugs” (J Med Chem, 1997) one finds IC50 and pKa data, which are given here for 16 molecules.

For one data set, the system named is CHO-AA8. Put plainly: cells. The settings on record: Cricetulus griseus, CHO-AA8, 18 h.
Data set [1] can be described thus: physchem. Conditions: aqueous solution.
Description: Affinity constant determined in aqueous solution
The nature of data set [2]: physchem. Conditions: aqueous solution. The source holds these as a separate data set.
Description: Pka was determined in aqueous solution

Description for CHO-AA8: Growth inhibition of aerobic AA8 cells, after 18 hours exposure

A word on the IC50: it is the concentration that inhibits the measured activity by half. Read a high IC50 as lower potency. One may read the pKa as the negative logarithm of the acid dissociation constant. In the case of `O=[N+]([O-])c1cccc2nccc(NCCN3CCOCC3)c12`, the IC50 in the data set with CHO-AA8 amounted to 18 µM. In addition, the pKa in “physchem [1]” came to 6.78.

`Cc1cc(C)c2nccc(NCCCN(C)C)c2c1[N+](=O)[O-]`: half-maximal inhibition in the data set with CHO-AA8 (IC50) was put at 74 µM. In addition, the pKa in “physchem [1]” worked out at 6.37.

Take `COc1ccc([N+](=O)[O-])c2c(NCC(O)CO)ccnc12` (configuration not stated): half-maximal inhibition in the data set with CHO-AA8 (IC50) required 50 µM. The pKa in “physchem [1]” is 7.1.

`Cc1ccc([N+](=O)[O-])c2c(NCCCN(C)C)cc(-c3ccccc3)nc12` came in with a concentration for half-maximal inhibition (IC50) in the data set on CHO-AA8 of 12 µM. The molecule further gave a pKa in “physchem [1]” of 5.43.

`Cc1cnc2ccc(C)c([N+](=O)[O-])c2c1NCCCN(C)C` yielded an IC50 with CHO-AA8 of 201 µM. The same molecule gave a pKa in “physchem [2]” of 6.07.

In turn, `COc1ccc([N+](=O)[O-])c2c(NCCCN(C)C)c(C)c(C)nc12` registered a 50% inhibitory concentration (IC50) with CHO-AA8 of 166 µM. In addition, the pKa in the data set “physchem [1]” came out at 6.64.

In the case of `O=[N+]([O-])c1cccc2nccc(NCCCO)c12`, the IC50 in the data set with CHO-AA8 was 26 µM. Moreover, the pKa in “physchem [1]” was 7.06.

In the case of `CCCCNc1ccnc2cccc([N+](=O)[O-])c12`, the concentration for half-maximal inhibition (IC50) in the data set on CHO-AA8 was 9.6 µM. The same molecule returned a pKa in the data set “physchem [1]” of 7.18.

The molecule `Cc1ccc([N+](=O)[O-])c2c(NCC(O)CO)ccnc12` (configuration not stated) showed a concentration for half-maximal inhibition (IC50) with CHO-AA8 of 110 µM. In the data set “physchem [1]”, this molecule had a pKa of 7.2.

`Cc1nc2cccc([N+](=O)[O-])c2c(NCCCN(C)C)c1C`: in the data set on CHO-AA8, the half-maximal inhibitory concentration (IC50) came out at 47 µM. Further, the pKa in “physchem [1]” worked out at 6.64.

The molecule `COc1cc(OC)c2nccc(NCCCN(C)C)c2c1[N+](=O)[O-]` showed an IC50 in the data set on CHO-AA8 of 186 µM. For the same molecule, the pKa in the data set “physchem [1]” was 6.25.

Turning to `Cc1cnc2c(C)ccc([N+](=O)[O-])c2c1NCCCN(C)C`, the midpoint of inhibition with CHO-AA8, the IC50, lay at 277 µM. The same molecule displayed a pKa in the data set “physchem [1]” of 6.1.

Molecule `CCc1ccc2nccc(NCCCN(C)C)c2c1[N+](=O)[O-]` returned a half-inhibitory concentration (IC50) in the data set on CHO-AA8 of 108 µM. Further, the pKa in the data set “physchem [1]” was found to be 6.2.

Turning to `Cc1nc2c(C)ccc([N+](=O)[O-])c2c(NCCCN(C)C)c1C`, in the data set with CHO-AA8, the IC50 is 113 µM. The pKa in the data set “physchem [1]” worked out at 6.67.

`CN(C)CCNC(=O)c1ccc(NNc2ccnc3cccc([N+](=O)[O-])c23)cc1`: the 50% inhibitory concentration (IC50) with CHO-AA8 was found to be 13 µM. The same molecule displayed a pKa in “physchem [2]” of 5.08.

The molecule `O=[N+]([O-])c1cccc2nccc(NCC(O)CO)c12` (configuration not stated) had an IC50 in the data set with CHO-AA8 of 33 µM. This molecule returned a pKa in “physchem [1]” of 6.81.
